In US8394785B2, “Methods for the treatment and amelioration of urticaria” (Jado Technologies GmbH, priority 2005, dated 2013):

How the values were obtained:
[1] = test system: C57 mouse mast cell line transfected with the alpha chain of the human high affinity IgE receptor; test: Histamine release assay, anti-human-IgE induced, C57 cells; format: cell-based; conditions: anti-human-IgE stimulation; 60 min pre-incubation
Method: Stock solution of miltefosine (5 mM) was prepared in DMSO and stored at −20° C. For preparation of the working concentration (2 mM), the stock solution was diluted with PAG-CM (PAG-CM=PIPES Albumin Glucose with Calcium und Magnesium). All other dilutions of miltefosine were prepared with 40% DMSO in PAG-CM buffer. The quantification of histamine levels was achieved using an automated histamine-analyser system (Firm Borgwelt Technik). The wavelength of the excitation was 355-360 nm and the emission wavelength of fluorescence measurement was 450-460 nm. The intensity of fluorescence was directly proportional to the concentration of histamine in the samples. The amount of released histamine was calculated according to the following formula: net histamine release=(release−blank)×(100/complete). “Release”, in this context, was defined as the supernatant of stimulated cells, e.g. by anti-IgE, whereas supernatants of non stimulated cells, i.e. spontaneous release, was termed “blank”. “Complete” stands for the total histamine content of mast cells (after lysing with perchloric acid). The histamine release assays were performed in the PAG-CM buffer system. The numbers of mast cells or basophils in each sample used for histamine release assays was approximately 1×10^4 cells. For stimulation, cells were exposed to anti-IgE, Substance P, Ca-ionophore, or C5a. […]

[2] = test system: primary human mast cells (human skin); test: Histamine release assay, Substance P induced, primary human mast cells; format: cell-based; conditions: dose-dependent; not dependent on pre-incubation time
Method: Tissue mast cells were isolated from human skin obtained during cosmetic surgery. Use of human skin was conducted according to the Declaration of Helsinki Principles and was approved by the Institutional Review Board of the Charité—Universitätsmedizin Berlin. For isolation of mast cells, the epidermis was enzymatically detached by an overnight incubation at 4° C. with dispase at a concentration of 1 mg/ml. The remaining dermis was dispersed by incubation with a mix of collagenase I and hyaluronidase for 1 h at 37° C. Dispersion was repeated three times, and the collected cells were washed. […] The final mast cell purity was >90% as measured by Toluidin blue staining. The viability of mast cells was >95% as assessed by Trypan blue staining (Grützkau et al 2000, Artuc et al 2002). The quantification of histamine levels was achieved using an automated histamine-analyser system (Firm Borgwelt Technik). The wavelength of the excitation was 355-360 nm and the emission wavelength of fluorescence measurement was 450-460 nm. The intensity of fluorescence was directly proportional to the concentration of histamine in the samples. The amount of released histamine was calculated according to the following formula: net histamine release=(release−blank)×(100/complete). […]

CCCCCCCCCCCCCCCCOP(=O)([O-])OCC[N+](C)(C)C [Compound 3, 1-hexadecylphosphoryl-choline]
maximal inhibition of histamine release [1]: 40% | inhibition of Substance P induced histamine release [2]: 45%
